We go through 29 compounds from US10654814B2, “Bicyclic hydroxamic acids useful as inhibitors of mammalian histone deacetylase activity” (KANCERA AB, priority 2015, dated 2020).

Where a name gives a salt, the structure may show the parent alone. Read-outs that look alike come from different tables or passages of the source.

What all share (format): biochemical
Experiment [1] has as its target HDAC2 (Homo sapiens (Human), UniProt Q92769). Kind of experiment: HDAC2 in vitro enzymatic assay (fluorescence). To be noted: Table 4 selectivity profiling. On the procedure: (§1) Biological Tests Method for Measurement of Enzymatic Activity of HDACs Materials & Methods
(§2) All Examples were tested in HDAC1,2,3,6 and 8 in vitro enzymatic assays. The assay principle is well known (Hauser et al. 2009, Bradner et al. 2010) and all necessary reagents like enzymes, substrates, developer and reference compounds are commercially available (see e.g. BPS Biosciences http://www.bpsbioscience.com/). Stock solutions (10 mM in DMSO) of compounds were serially diluted 1:3 in 11 concentrations with a top concentration of 200 μM for HDAC1,2,3 and 2 μM for HDAC6 and HDAC8. The enzymatic reactions were conducted in a mixture containing assay buffer, bovine serum albumin, HDAC substrate, and a test compound. After enzymatic reaction, developer was added and after an additional incubation time, fluorescence intensity was measured at an excitation wavelength of 360 nm and an emission wavelength of 460 nm. All experiments were performed in duplicate.

In experiment [2] the target is HDAC6 (Homo sapiens (Human), UniProt Q9UBN7). The experiment can be described thus: HDAC6 in vitro enzymatic assay (fluorescence). On the procedure: as §1, §2
The target of experiment [3] is HDAC1 (Homo sapiens (Human), UniProt Q13547). Kind of experiment: HDAC1 in vitro enzymatic assay (fluorescence). To be noted: Table 4 selectivity profiling. On the procedure: as §1, §2
Experiment [4] has as its target HDAC3 (Homo sapiens (Human), UniProt O15379). Kind of experiment: HDAC3 in vitro enzymatic assay (fluorescence). To be noted: Table 4 selectivity profiling. On the procedure:
as §1, §2

In experiment [5] the target is HDAC8 (Homo sapiens (Human), UniProt Q9BY41). The experiment can be described thus: HDAC8 in vitro enzymatic assay (fluorescence). To be noted: Table 4 selectivity profiling. On the procedure: as §1, §2
[6] abbreviates: Table 3, read-out: IC50 (nM) for inhibition of HDAC6.
[7] abbreviates: Table 4 selectivity profiling, read-out: IC50 (nM) HDAC6.

HDAC8, sequence (Q9BY41 whole entry): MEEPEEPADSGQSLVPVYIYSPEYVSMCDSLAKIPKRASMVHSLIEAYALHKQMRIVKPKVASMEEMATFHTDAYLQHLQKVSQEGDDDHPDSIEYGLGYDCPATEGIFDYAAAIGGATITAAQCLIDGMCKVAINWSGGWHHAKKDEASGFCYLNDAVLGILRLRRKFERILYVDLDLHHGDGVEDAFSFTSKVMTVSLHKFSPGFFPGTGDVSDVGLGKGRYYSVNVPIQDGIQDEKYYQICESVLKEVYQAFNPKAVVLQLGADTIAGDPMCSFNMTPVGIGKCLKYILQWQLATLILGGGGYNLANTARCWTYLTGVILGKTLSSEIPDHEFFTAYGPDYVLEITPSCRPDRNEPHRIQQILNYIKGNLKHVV
HDAC2, sequence (Q92769 whole entry): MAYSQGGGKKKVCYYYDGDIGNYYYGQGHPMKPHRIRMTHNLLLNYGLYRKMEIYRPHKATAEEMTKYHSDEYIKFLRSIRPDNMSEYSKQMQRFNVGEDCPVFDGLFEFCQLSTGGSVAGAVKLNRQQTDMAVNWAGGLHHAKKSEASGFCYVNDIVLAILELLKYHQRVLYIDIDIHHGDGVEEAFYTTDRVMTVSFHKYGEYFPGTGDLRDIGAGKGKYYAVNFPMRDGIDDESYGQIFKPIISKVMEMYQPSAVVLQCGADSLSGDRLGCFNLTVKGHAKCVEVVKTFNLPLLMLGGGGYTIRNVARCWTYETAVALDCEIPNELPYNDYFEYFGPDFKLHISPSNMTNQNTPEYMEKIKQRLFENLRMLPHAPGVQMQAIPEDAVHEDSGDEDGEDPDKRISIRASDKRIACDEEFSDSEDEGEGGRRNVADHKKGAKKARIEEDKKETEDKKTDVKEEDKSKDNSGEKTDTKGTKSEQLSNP
HDAC3, sequence (O15379 whole entry): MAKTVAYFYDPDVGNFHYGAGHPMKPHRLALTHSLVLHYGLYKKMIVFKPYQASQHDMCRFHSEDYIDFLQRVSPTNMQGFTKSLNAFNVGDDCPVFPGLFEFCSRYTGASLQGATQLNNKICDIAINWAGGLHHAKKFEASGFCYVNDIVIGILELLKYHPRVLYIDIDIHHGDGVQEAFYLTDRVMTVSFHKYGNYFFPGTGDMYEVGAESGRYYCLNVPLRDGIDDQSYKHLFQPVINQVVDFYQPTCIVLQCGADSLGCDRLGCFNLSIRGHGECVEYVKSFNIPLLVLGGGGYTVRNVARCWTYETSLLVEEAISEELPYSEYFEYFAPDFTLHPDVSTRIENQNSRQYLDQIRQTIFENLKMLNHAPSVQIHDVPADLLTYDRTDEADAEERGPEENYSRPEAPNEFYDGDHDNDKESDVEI
HDAC3, sequence (Q9Y618 395-489 partner): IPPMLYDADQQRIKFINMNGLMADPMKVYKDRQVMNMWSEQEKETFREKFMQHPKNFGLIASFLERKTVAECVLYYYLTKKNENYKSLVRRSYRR
HDAC6, sequence (Q9UBN7 whole entry): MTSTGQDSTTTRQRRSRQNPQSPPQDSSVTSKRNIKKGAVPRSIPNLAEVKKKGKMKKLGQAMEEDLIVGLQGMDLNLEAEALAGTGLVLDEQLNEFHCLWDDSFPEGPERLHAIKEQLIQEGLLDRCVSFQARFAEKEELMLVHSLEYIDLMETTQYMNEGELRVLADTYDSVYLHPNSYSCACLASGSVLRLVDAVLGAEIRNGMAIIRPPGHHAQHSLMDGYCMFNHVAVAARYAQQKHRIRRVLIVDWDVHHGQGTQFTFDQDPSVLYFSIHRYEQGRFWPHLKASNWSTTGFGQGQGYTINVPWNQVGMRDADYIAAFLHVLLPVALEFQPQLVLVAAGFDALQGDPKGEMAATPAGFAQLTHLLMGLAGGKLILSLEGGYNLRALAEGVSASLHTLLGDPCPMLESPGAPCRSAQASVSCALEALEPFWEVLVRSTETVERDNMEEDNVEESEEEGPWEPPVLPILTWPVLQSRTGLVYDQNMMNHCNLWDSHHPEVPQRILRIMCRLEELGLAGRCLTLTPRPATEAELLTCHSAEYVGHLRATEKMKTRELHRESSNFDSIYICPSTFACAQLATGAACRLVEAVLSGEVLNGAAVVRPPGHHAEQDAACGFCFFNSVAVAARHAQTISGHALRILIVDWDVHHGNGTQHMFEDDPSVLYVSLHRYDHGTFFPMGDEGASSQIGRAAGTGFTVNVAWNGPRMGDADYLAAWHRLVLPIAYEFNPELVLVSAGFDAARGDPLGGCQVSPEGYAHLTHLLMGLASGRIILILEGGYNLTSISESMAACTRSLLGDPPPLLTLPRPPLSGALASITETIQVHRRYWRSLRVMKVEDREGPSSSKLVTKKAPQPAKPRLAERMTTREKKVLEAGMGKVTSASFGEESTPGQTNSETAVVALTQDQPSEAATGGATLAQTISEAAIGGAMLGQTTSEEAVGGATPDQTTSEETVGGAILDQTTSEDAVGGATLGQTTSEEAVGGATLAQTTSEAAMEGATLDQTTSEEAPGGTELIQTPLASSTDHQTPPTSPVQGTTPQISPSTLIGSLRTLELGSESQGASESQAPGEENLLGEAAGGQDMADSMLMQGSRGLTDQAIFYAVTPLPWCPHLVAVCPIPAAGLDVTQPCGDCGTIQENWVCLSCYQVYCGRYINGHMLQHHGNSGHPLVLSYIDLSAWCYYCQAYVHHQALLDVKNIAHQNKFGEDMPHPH
HDAC1, sequence (Q13547 whole entry): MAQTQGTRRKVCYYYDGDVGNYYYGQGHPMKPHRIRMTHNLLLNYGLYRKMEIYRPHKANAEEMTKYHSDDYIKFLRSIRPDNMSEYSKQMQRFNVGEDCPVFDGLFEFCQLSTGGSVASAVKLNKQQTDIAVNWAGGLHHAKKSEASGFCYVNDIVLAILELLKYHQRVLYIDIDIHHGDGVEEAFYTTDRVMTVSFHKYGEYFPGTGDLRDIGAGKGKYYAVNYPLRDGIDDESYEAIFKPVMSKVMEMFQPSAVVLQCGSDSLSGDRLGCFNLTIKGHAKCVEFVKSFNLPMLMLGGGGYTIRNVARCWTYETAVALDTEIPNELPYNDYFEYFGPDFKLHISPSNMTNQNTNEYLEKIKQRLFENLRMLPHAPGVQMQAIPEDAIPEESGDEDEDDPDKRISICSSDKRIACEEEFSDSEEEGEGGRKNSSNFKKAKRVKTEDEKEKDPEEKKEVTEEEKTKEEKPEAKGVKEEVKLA

Consider `O=C(NO)c1ccc2oc(-c3ccccc3Cl)nc2c1` [Example 12, 2-(2-chlorophenyl)-N-hydroxy-1,3-benzoxazole-5-carboxamide], for which the IC50 (commonly the concentration that inhibits the measured activity by half) in experiment [1] stood at 52000 nM; in experiment [2] (setting [6]), 5 nM; in experiment [2] (setting [7]), 5 nM; in experiment [3] it was 1200 nM; in experiment [4], 560 nM; in experiment [5] it was 880 nM.

For the compound `O=C(NO)c1ccc2oc(-c3ccc(C(F)(F)F)cc3)nc2c1` [Example 18, N-hydroxy-2-[4-(trifluoromethyl)phenyl]-1,3-benzoxazole-5-carboxamide], the half-maximal inhibitory concentration (IC50) in experiment [1] came out at 11000 nM; in experiment [2] (setting [7]) it was 37 nM; in experiment [3], 2000 nM; in experiment [4], 1600 nM; in experiment [5], 1300 nM.

`O=C(NO)c1ccc2oc(-c3ccc(C4CC4)cc3)nc2c1` [Example 29, 2-(4-Cyclopropylphenyl)-N-hydroxy-1,3-benzoxazole-5-carboxamide]: the IC50 in experiment [1] stood at 10000 nM; in experiment [2] (setting [6]) it was 10 nM; in experiment [2] (setting [7]) it was 10 nM; in experiment [3], 2100 nM; in experiment [4], 1000 nM; in experiment [5], 1400 nM.

As for `O=C(NO)c1ccc2nc(-c3cccc4cccnc34)sc2c1` [Example 70, N-hydroxy-2-quinolin-8-yl-1,3-benzothiazole-6-carboxamide], the IC50 in experiment [1] was found to be 19000 nM; in experiment [2] (setting [7]), 65 nM; in experiment [3], 6100 nM; in experiment [4] it was 2300 nM; in experiment [5], 320 nM.

`O=C(NO)c1ccc2sc(-c3ccc(F)cc3)nc2c1` [Example 76, 2-(4-Fluorophenyl)-N-hydroxy-1,3-benzothiazole-5-carboxamide]: the IC50 in experiment [1] was determined as 6600 nM; in experiment [2] (setting [6]), 18 nM; in experiment [2] (setting [7]), 18 nM; in experiment [3] it was 1500 nM; in experiment [4] it was 450 nM; in experiment [5], 340 nM.

Regarding `O=C(NO)c1ccc2sc(-c3cccnc3)cc2c1` [Example 96, N-hydroxy-2-pyridin-3-yl-1-benzothiophene-5-carboxamide], the IC50 in experiment [1] amounted to 55000 nM; in experiment [2] (setting [6]), 64 nM; in experiment [2] (setting [7]), 64 nM; in experiment [3], 9700 nM; in experiment [4], 7200 nM; in experiment [5], 960 nM.

Regarding `Cc1noc(C)c1-c1cc2cc(C(=O)NO)ccc2s1` [Example 100, 2-(3,5-dimethylisoxazol-4-yl)-N-hydroxy-1-benzothiophene-5-carboxamide], the IC50 in experiment [1] amounted to 74000 nM; in experiment [2] (setting [6]), 36 nM; in experiment [2] (setting [7]), 36 nM; in experiment [3], 14000 nM; in experiment [4], 18000 nM; in experiment [5], 760 nM.

As for `CC(C)c1ccc(-c2cc3cc(C(=O)NO)cnc3o2)cc1` [Example 113, N-Hydroxy-2-[4-(1-methylethyl)phenyl]furo[2,3-b]pyridine-5-carboxamide], the IC50 was 2000 nM in experiment [1]; 22 nM in experiment [2] (setting [6]); 22 nM in experiment [2] (setting [7]); 500 nM in experiment [3]; 330 nM in experiment [4]; 120 nM in experiment [5].

Consider `CCN(CC)Cc1cc2ccc(C(=O)NO)cc2o1` [Example 117, 2-[(Diethylamino)methyl]-N-hydroxy-1-benzofuran-6-carboxamide trifluoroacetate], for which the IC50 in experiment [1] is 69000 nM; in experiment [2] (setting [6]), 64 nM; in experiment [2] (setting [7]), 26 nM; in experiment [3], 19000 nM; in experiment [4] it was 25000 nM; in experiment [5], 1400 nM.

As to `O=C(NO)c1ccc2nc(Nc3cccc(OCc4ccccc4)c3)[nH]c2c1` [Example 132, 2-((3-(benzyloxy)phenyl)amino)-N-hydroxy-1H-benzo[d]imidazole-6-carboxamide], the IC50 in experiment [1] is 24000 nM; in experiment [2] (setting [6]) it was 17 nM; in experiment [2] (setting [7]) it was 17 nM; in experiment [3], 1200 nM; in experiment [4] it was 370 nM; in experiment [5] it was 240 nM.

With `O=C(NO)c1ccc2oc(COc3cccc(F)c3)cc2c1` [Example 162, 2-[(3-Fluorophenoxy)methyl]-N-hydroxy-1-benzofuran-5-carboxamide], the IC50 in experiment [1] is 3500 nM; in experiment [2] (setting [6]), 7 nM; in experiment [2] (setting [7]), 7 nM; in experiment [3] it was 550 nM; in experiment [4], 320 nM; in experiment [5], 1500 nM.

For `COc1ccc(-c2ccc(-c3nc4cc(C(=O)NO)ccc4o3)c(F)c2)cn1` [Example 176, 2-[2-fluoro-4-(6-methoxypyridin-3-yl)phenyl]-N-hydroxy-1,3-benzoxazole-5-carboxamide], the IC50 in experiment [1] was > 200000 nM; in experiment [2] (setting [7]), 16 nM; in experiment [3] it was > 200000 nM; in experiment [4] it was 960 nM; in experiment [5], 384 nM.

In the case of `O=C(NO)c1ccc2oc(NCc3ccc(-c4ccccc4)cc3)nc2c1` [Example 234, 2-[(biphenyl-4-ylmethyl)amino]-N-hydroxy-1,3-benzoxazole-5-carboxamide], the IC50 in experiment [2] (setting [6]) amounted to 4 nM.

On to `O=C(NO)c1ccc2oc(N(Cc3ccccc3)c3ccccc3)nc2c1` [Example 241, 2-[benzyl(phenyl)amino]-N-hydroxy-1,3-benzoxazole-5-carboxamide], for which, in experiment [2] (setting [6]), the IC50 was 27 nM.

For the compound `COc1ccc(CN(CCN(C)C)c2nc3cc(C(=O)NO)ccc3o2)cc1OC` [Example 244, 2-{(3,4-dimethoxybenzyl)[2-(dimethylamino)ethyl]amino}-N-hydroxy-1,3-benzoxazole-5-carboxamide trifluoroacetate], the IC50 in experiment [2] (setting [6]) came out at 63 nM.

With `O=C(NO)c1ccc2oc(NC3(c4cccc(F)c4)CCCCC3)nc2c1` [Example 262, 2-{[1-(3-fluorophenyl)cyclohexyl]amino}-N-hydroxy-1,3-benzoxazole-5-carboxamide], in experiment [2] (setting [6]), the IC50 was determined as 9 nM.

As for `Cc1ccc(Nc2nc3cc(C(=O)NO)ccc3o2)cc1` [Example 263, N-hydroxy-2-[(4-methylphenyl)amino]-1,3-benzoxazole-5-carboxamide], the IC50 in experiment [2] (setting [6]) is 9 nM.

With `O=C(NO)c1ccc2sc(COCc3ccccc3)nc2c1` [Example 270, 2-[(Benzyloxy)methyl]-N-hydroxy-1,3-benzothiazole-5-carboxamide], the IC50 in experiment [2] (setting [6]) is 4 nM.

On to `O=C(NO)c1ccc2sc(CO)nc2c1` [Example 271, N-Hydroxy-2-(hydroxymethyl)-1,3-benzothiazole-5-carboxamide], for which the IC50 in experiment [2] (setting [6]) was determined as 37 nM.

In the case of `O=C(NO)c1ccc2sc(Cc3ccc(-c4ccncc4)cc3)nc2c1` [Example 272, N-Hydroxy-2-(4-pyridin-4-ylbenzyl)-1,3-benzothiazole-5-carboxamide trifluoroacetate], the IC50 in experiment [2] (setting [6]) is 6 nM.

For the compound `O=C(NO)c1ccc2sc(CN3CCCCC3)nc2c1` [Example 273, N-Hydroxy-2-(piperidin-1-ylmethyl)-1,3-benzothiazole-5-carboxamide], the IC50 in experiment [2] (setting [6]) is 16 nM.

Take `CC(C)CN(Cc1nc2cc(C(=O)NO)ccc2s1)CC(C)C` [Example 274, 2-{[Bis(2-methylpropyl)amino]methyl}-N-hydroxy-1,3-benzothiazole-5-carboxamide trifluoroacetate]: in experiment [2] (setting [6]), the IC50 was 16 nM.

Turning to `CC(C)c1ccc(NCc2nc3cc(C(=O)NO)ccc3s2)cc1` [Example 275, N-Hydroxy-2-({[4-(1-methylethyl)phenyl]amino}methyl)-1,3-benzothiazole-5-carboxamide], the IC50 in experiment [2] (setting [6]) came to 8 nM.

As to `COc1ccc(-c2cc3cc(C(=O)NO)ccc3o2)cn1` [Example 278, N-hydroxy-2-(6-methoxypyridin-3-yl)-1-benzofuran-5-carboxamide], the IC50 in experiment [2] (setting [6]) came to 96 nM.

On to `O=C(NO)c1ccc2oc(-c3ccccc3CO)cc2c1` [Example 281, N-hydroxy-2-[2-(hydroxymethyl)phenyl]-1-benzofuran-5-carboxamide], for which the IC50 in experiment [2] (setting [6]) stood at 92 nM.

Regarding `O=C(NO)c1ccc2cc(-c3ccccc3)oc2c1` [Example 282, N-Hydroxy-2-phenyl-1-benzofuran-6-carboxamide], the IC50 in experiment [2] (setting [6]) came to 9 nM.

As for `CN(C)Cc1ccc(-c2cc3ccc(C(=O)NO)cc3o2)cc1` [Example 283, 2-{4-[(dimethylamino)methyl]phenyl}-N-hydroxy-1-benzofuran-6-carboxamide trifluoroacetate], in experiment [2] (setting [6]), the IC50 was determined as 7 nM.

With `O=C(NO)c1ccc2cc(-c3cccc(O)c3)oc2c1` [Example 284, N-hydroxy-2-(3-hydroxypheny)-1-benzofuran-6-carboxamide], the half-maximal inhibitory concentration (IC50) in experiment [2] (setting [6]) turned out to be 4 nM.

`COc1cccc(-c2cc3ccc(C(=O)NO)cc3o2)c1` [Example 285, N-hydroxy-2-(3-methoxyphenyl)-1-benzofuran-6-carboxamide]: the IC50 in experiment [1] is 6900 nM; in experiment [2] (setting [6]) it was 4 nM; in experiment [2] (setting [7]), 4 nM; in experiment [3], 470 nM; in experiment [4], 640 nM; in experiment [5], 210 nM.
